Assay results reported in ChEMBL document CHEMBL2157953, “Identification of aminopyridazine-derived antineuroinflammatory agents effective in an Alzheimer's mouse model” (ACS Med Chem Lett, 2012).
Activity calls are given as the source filed them. The calls are words filed in the database; no cut-off is given here.

What was measured:
BV-2 = experiment: Antineuroinflammatory activity in mouse BV2 cells assessed as inhibition of LPS-induced IL-1beta production after 16 hrs by ELISA; format: functional, cell-based; conditions: BV-2, 16 h
Mus musculus [1] = experiment: Antialzheimer activity in Kunming mouse assessed as reversal of amyloid beta (1 to 42)-induced impairments in spartial recognition memory at 2.5 mg/kg, po qd measured on day 3 and 4 by morris water maze test; format: functional, organism-based; set-up: dose 2.5 mg/kg
Mus musculus [2] = experiment: Antialzheimer activity in Kunming mouse assessed as reversal of amyloid beta (1 to 42)-induced decrease of swimming percentage of path length at 2.5 mg/kg, po qd measured on day 13 by morris water maze test; format: functional, organism-based; set-up: dose 2.5 mg/kg
Mus musculus [3] = experiment: Antialzheimer activity in Kunming mouse assessed as reversal of amyloid beta (1 to 42)-induced decrease of swimming time spent in target quadrant at 2.5 mg/kg, po qd measured on day 13 by morris water maze test; format: functional, organism-based; set-up: dose 2.5 mg/kg
[4] = Tmax in rat brain at 2.5 mg/kg, po; format: ADME, organism-based; set-up: dose 2.5 mg/kg, route oral
[5] = Oral bioavailability in rat at 2.5 mg/kg; format: ADME, organism-based; conditions: in vivo
Mus musculus [6] = experiment: Antialzheimer activity in Kunming mouse assessed as reversal of amyloid beta (1 to 42)-induced impairments in spartial recognition memory at 0.65 mg/kg, po qd measured on day 3 and 4 by morris water maze test; format: functional, organism-based; set-up: dose 0.65 mg/kg
Mus musculus [7] = experiment: Antialzheimer activity in Kunming mouse assessed as reversal of amyloid beta (1 to 42)-induced decrease of swimming percentage of path length at 0.656 mg/kg, po qd measured on day 13 by morris water maze test; format: functional, organism-based; set-up: dose 0.656 mg/kg
Mus musculus [8] = experiment: Antialzheimer activity in Kunming mouse assessed as reversal of amyloid beta (1 to 42)-induced decrease of swimming time spent in target quadrant at 0.65 mg/kg, po qd measured on day 13 by morris water maze test; format: functional, organism-based; set-up: dose 0.65 mg/kg

| SMILES | IC50 (BV-2) | other results |
| --- | --- | --- |
| Cc1cc(-c2ccc(F)cc2)nnc1N1CCN(c2ncccn2)CC1 | 76.3 µM | – |
| Cc1cc(-c2cccc(F)c2)nnc1N1CCN(c2ncccn2)CC1 | 33.5 µM | – |
| COc1ccc(-c2cc(C)c(N3CCN(c4ncccn4)CC3)nn2)cc1 | 5.2 µM | – |
| Cc1cc(-c2ccnc3ccccc23)nnc1N1CCN(c2ncccn2)CC1 | 66.5 µM | – |
| COc1ncc(-c2cc(C)c(N3CCN(c4ncccn4)CC3)nn2)c(OC)n1 | > 100 µM | – |
| COc1cc2c(cc1OC)C(=O)C(CC1CCN(Cc3ccccc3)CC1)C2 (configuration not stated) | – | Activity (Mus musculus [6]): Active; Activity (Mus musculus [7]): Active; Activity (Mus musculus [8]): Active |
| Cc1cc(-c2ccc3[nH]ccc3c2)nnc1N1CCN(c2ncccn2)CC1 | 85.1 µM | – |
| Cc1cc(-c2ccc(C(F)(F)F)cc2)nnc1N1CCN(c2ncccn2)CC1 | 37.4 µM | – |
| Cc1cc(-c2cncnc2)nnc1N1CCN(c2ncccn2)CC1 | > 100 µM | – |
| Cc1cc(-c2cc3ccccc3s2)nnc1N1CCN(c2ncccn2)CC1 | 24.9 µM | – |
| COc1cccc(-c2cc(C)c(N3CCN(c4ncccn4)CC3)nn2)c1 | 2.6 µM | – |

The next lines start with results.

| IC50 (BV-2) | SMILES | other results |
| --- | --- | --- |
| > 100 µM | Cc1cc(C)c(N2CCN(c3ncccn3)CC2)nn1 | – |
| 2.4 µM | Cc1cc(-c2ccsc2)nnc1N1CCN(c2ncccn2)CC1 | Activity (Mus musculus [1]): Active; Activity (Mus musculus [2]): Active; Activity (Mus musculus [3]): Active; Tmax [4]: 19.8 min; bioavailability [5]: 17.4% |
| 17.2 µM | Cc1ccc(-c2cc(C)c(N3CCN(c4ncccn4)CC3)nn2)cc1 | – |
| > 100 µM | Cc1cc(Cl)nnc1N1CCN(c2ncccn2)CC1 | – |
| > 100 µM | Cc1cc(-c2cccnc2)nnc1N1CCN(c2ncccn2)CC1 | – |
| > 100 µM | Cc1cc(C(C)C)nnc1N1CCN(c2ncccn2)CC1 | – |
| > 100 µM | Cc1ccnnc1N1CCN(c2ncccn2)CC1 | – |
| > 100 µM | Cc1cc(-c2ccncc2)nnc1N1CCN(c2ncccn2)CC1 | – |
| 11.4 µM | Cc1cc(-c2ccccc2)nnc1N1CCN(c2ncccn2)CC1 | – |
